Measured values taken from ChEMBL document CHEMBL1201862, “PubChem BioAssay data set” (2004).
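Compound exposure: 48 hours, 5 concentrations, 96-well plates. The concentration for 50% growth inhibition is given as GI50.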 Activity calls are given as the source filed them. No stated cut-off is given here; in the data, active = GI50 up to about 1.1 µM and inactive = higher.

Legend:
Assay in all cases: NCI anticancer screen, dose series, 48 h
786-0 = test system: 786-0
CAKI-1 = test system: CAKI-1
COLO 205 = test system: COLO 205
HL-60 = test system: HL-60
HOP-62 = test system: HOP-62
IGROV-1 = test system: IGROV-1
MDA-N = test system: MDA-N
NCI-H226 = test system: NCI-H226
NCI-H23 = test system: NCI-H23
NCI-H522 = test system: NCI-H522
RPMI-8226 = test system: RPMI-8226
SF-268 = test system: SF-268
SF-295 = test system: SF-295
SW-620 = test system: SW-620
T47D = test system: T47D
TK-10 = test system: TK-10
A549 = test system: A549
K562 = test system: K562
PC-3 = test system: PC-3
SK-MEL-28 = test system: SK-MEL-28

Measured: GI50

CCCCc1ccc(C#CC#Cc2ccc(CCCC)s2)s1
inactive: 786-0 > 100 µM | CAKI-1 > 100 µM | COLO 205 > 100 µM | HL-60 24.8 µM | HOP-62 > 100 µM | IGROV-1 > 100 µM | MDA-N > 100 µM | NCI-H226 > 100 µM | NCI-H23 > 100 µM | NCI-H522 > 100 µM | RPMI-8226 > 100 µM | SF-268 > 100 µM | SF-295 > 100 µM | SW-620 > 100 µM | T47D > 100 µM | TK-10 > 100 µM

Clc1ccc2nc3[nH]nc(Cl)c3nc2c1
inactive: 786-0 61.5 µM | A549 36.8 µM | CAKI-1 49.1 µM | COLO 205 52.5 µM | HOP-62 53.5 µM | K562 52.4 µM | MDA-N 76.9 µM | NCI-H23 48.1 µM | PC-3 34.6 µM | RPMI-8226 47.4 µM | SF-268 47.9 µM | SF-295 72.6 µM | SK-MEL-28 84.7 µM | SW-620 72.6 µM | T47D 44.1 µM | TK-10 56.5 µM

CC1OC(n2cnc3c(N)nc(Cl)nc32)C(C)(O)C1O (stereo unspecified)
inactive: 786-0 > 25 µM | A549 > 25 µM | CAKI-1 > 25 µM | COLO 205 > 25 µM | HL-60 > 25 µM | HOP-62 > 25 µM | IGROV-1 > 25 µM | K562 > 25 µM | MDA-N > 25 µM | NCI-H226 > 25 µM | NCI-H23 > 25 µM | NCI-H522 > 25 µM | RPMI-8226 > 25 µM | SF-268 > 25 µM | SF-295 > 25 µM | SW-620 > 25 µM | T47D > 25 µM | TK-10 > 25 µM

COc1ccccc1-c1cc(=O)c2ccc(OC)c(OC)c2o1
inactive: 786-0 89.1 µM | A549 45.6 µM | CAKI-1 > 100 µM | COLO 205 49.3 µM | HL-60 27.5 µM | HOP-62 > 100 µM | IGROV-1 97.1 µM | K562 > 100 µM | MDA-N 48.2 µM | NCI-H226 > 100 µM | NCI-H23 > 100 µM | NCI-H522 32.8 µM | RPMI-8226 47.6 µM | SF-268 > 100 µM | SF-295 40.8 µM | SK-MEL-28 > 100 µM | SW-620 96.2 µM | T47D 19.3 µM | TK-10 46.6 µM

COC(CCC[N+](C)(C)C)CC[N+](C)(C)C (stereo unspecified)
inactive: 786-0 > 100 µM | A549 > 100 µM | CAKI-1 > 100 µM | COLO 205 > 100 µM | HL-60 > 100 µM | HOP-62 > 100 µM | IGROV-1 > 100 µM | K562 > 100 µM | MDA-N > 100 µM | NCI-H226 > 100 µM | NCI-H23 > 100 µM | NCI-H522 > 100 µM | PC-3 > 100 µM | RPMI-8226 > 100 µM | SF-268 > 100 µM | SF-295 > 100 µM | SK-MEL-28 > 100 µM | SW-620 > 100 µM | TK-10 > 100 µM

CCCCC/C=C1/CC(CO)(COC(=O)CC(C(C)C)C(C)C)OC1=O (stereo unspecified)
inactive: 786-0 8.53 µM | A549 11.1 µM | CAKI-1 10.7 µM | COLO 205 3.24 µM | HOP-62 7.74 µM | IGROV-1 17.8 µM | K562 5.75 µM | MDA-N 3.67 µM | NCI-H226 12.1 µM | NCI-H23 16 µM | NCI-H522 16.4 µM | PC-3 10.1 µM | SF-268 16.4 µM | SF-295 5.73 µM | SK-MEL-28 13 µM | SW-620 18.3 µM | T47D 17.5 µM | TK-10 11.8 µM
